Data published in ChEMBL document CHEMBL4715730, “Design, synthesis, and pharmacological evaluation of multitarget-directed ligands with both serotonergic subtype 4 receptor (5-HT4R) partial agonist and 5-HT6R antagonist activities, as potential treatment of Alzheimer's disease” (Eur J Med Chem, 2016).
Active and inactive are the calls of the source. No cut-off for these calls is given here.

Tests used:
[1] = target: T1, 5-hydroxytryptamine receptor 6 (Homo sapiens, UniProt P50406); assay: Displacement of [3H]-LSD from human 5-HT6 receptor expressed in HEK293 cells at 0.01 uM in presence of serotonin incubated for 60 mins; type: cell-based
T1 sequence (P50406 whole entry): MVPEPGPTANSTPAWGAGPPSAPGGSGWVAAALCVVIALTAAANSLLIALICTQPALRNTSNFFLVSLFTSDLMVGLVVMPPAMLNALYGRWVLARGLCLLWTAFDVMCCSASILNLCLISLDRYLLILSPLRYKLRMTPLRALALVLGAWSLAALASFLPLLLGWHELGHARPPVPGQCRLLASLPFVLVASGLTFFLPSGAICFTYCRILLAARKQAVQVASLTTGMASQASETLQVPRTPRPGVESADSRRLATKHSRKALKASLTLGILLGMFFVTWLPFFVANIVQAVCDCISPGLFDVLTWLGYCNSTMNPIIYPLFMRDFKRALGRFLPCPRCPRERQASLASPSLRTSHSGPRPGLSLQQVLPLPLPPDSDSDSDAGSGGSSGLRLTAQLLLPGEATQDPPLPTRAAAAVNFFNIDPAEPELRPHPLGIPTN

[2] = target: 5-hydroxytryptamine receptor 4 (Cavia porcellus) (UniProt O70528); assay: Displacement of [3H]-GR113808 from guinea pig brain 5HT4 receptor at 0.01 uM in presence of serotonin incubated for 30 mins; type: tissue-based
Sequence of 5-hydroxytryptamine receptor 4 (Cavia porcellus) (O70528 whole entry): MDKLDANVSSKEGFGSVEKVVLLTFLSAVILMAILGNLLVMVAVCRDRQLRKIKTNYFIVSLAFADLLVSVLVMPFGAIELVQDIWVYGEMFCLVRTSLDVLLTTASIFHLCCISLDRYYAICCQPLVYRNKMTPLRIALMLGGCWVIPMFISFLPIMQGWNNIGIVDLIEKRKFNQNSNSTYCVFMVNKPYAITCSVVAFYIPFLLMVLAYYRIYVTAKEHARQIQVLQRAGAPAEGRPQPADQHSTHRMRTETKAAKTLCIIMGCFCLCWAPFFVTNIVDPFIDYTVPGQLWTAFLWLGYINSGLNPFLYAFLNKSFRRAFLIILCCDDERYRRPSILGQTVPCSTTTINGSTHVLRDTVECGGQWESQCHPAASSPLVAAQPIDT

[3] = target: 5-hydroxytryptamine receptor 4 (Cavia porcellus) (UniProt O70528); assay: Displacement of [3H]-GR113808 from guinea pig brain 5HT4 receptor at 1 uM in presence of serotonin incubated for 30 mins; type: tissue-based
[4] = target: T1, 5-hydroxytryptamine receptor 6; assay: Displacement of [3H]-LSD from human 5-HT6 receptor expressed in HEK293 cells at 1 uM in presence of serotonin incubated for 60 mins; type: cell-based
[5] = target: 5-hydroxytryptamine receptor 4 (Cavia porcellus, UniProt O70528); assay: Displacement of [3H]-GR113808 from guinea pig brain 5HT4 receptor in presence of serotonin incubated for 30 mins; type: tissue-based
Sequence of 5-hydroxytryptamine receptor 4 (O70528 whole entry): as above

[6] = Toxicity in NMRI mouse assessed as neurological changes upto 100 mg/kg, ip measured 0.5 to 24 hrs; type: organism-based; settings: in vivo, time 0.5-24 hrs
[7] = target: 5-hydroxytryptamine receptor 1B (Rattus norvegicus) (UniProt P28564); assay: Displacement of [125I]-CYP from rat brain 5-HT1B receptor at 10 uM after 120 mins by scintillation counting analysis relative to control; type: tissue-based
Sequence of 5-hydroxytryptamine receptor 1B (Rattus norvegicus) (P28564 whole entry): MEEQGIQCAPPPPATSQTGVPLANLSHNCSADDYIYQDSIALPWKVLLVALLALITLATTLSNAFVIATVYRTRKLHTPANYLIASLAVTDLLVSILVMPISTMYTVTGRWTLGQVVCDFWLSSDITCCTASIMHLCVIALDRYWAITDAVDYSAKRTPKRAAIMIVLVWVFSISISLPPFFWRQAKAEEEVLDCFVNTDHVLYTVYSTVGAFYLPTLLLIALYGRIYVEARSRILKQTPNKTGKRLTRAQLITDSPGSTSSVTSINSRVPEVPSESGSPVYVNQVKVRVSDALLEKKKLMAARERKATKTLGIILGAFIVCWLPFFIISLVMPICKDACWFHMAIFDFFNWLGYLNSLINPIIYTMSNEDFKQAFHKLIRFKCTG

[8] = target: 5-hydroxytryptamine receptor 2B (Homo sapiens) (UniProt P41595); assay: Displacement of [125I]+/-DOI from human recombinant 5-HT2B receptor at 10 uM after 60 mins by scintillation counting analysis relative to control
Sequence of 5-hydroxytryptamine receptor 2B (Homo sapiens) (P41595 whole entry): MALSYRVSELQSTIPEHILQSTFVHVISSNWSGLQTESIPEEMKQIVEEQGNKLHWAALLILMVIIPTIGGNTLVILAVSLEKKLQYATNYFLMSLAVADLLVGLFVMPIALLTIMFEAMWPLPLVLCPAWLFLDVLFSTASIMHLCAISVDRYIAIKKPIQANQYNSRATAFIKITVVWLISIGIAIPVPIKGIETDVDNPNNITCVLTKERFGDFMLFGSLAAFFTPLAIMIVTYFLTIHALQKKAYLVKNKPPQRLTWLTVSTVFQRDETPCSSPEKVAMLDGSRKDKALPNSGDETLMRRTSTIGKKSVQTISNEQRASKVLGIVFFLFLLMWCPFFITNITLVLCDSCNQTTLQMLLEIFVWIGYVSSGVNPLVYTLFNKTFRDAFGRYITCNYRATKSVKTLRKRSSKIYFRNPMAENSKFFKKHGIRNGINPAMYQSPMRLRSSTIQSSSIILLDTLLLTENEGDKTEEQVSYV

Mus musculus [9] = assay: Anti-amnesic effect in scopolamine-induced memory impairment NMRI mouse model assessed as spatial working memory by measuring increase in spontaneous alteration at 1 mg/kg, ip measured after 30 mins by Y-maze test; type: functional, organism-based
[10] = target: T2, 5-hydroxytryptamine receptor 2A (Homo sapiens, UniProt P28223); assay: Displacement of [3H]ketanserin human recombinant 5-HT2A receptor at 10 uM after 60 mins by scintillation counting analysis relative to control
T2 sequence (P28223 whole entry): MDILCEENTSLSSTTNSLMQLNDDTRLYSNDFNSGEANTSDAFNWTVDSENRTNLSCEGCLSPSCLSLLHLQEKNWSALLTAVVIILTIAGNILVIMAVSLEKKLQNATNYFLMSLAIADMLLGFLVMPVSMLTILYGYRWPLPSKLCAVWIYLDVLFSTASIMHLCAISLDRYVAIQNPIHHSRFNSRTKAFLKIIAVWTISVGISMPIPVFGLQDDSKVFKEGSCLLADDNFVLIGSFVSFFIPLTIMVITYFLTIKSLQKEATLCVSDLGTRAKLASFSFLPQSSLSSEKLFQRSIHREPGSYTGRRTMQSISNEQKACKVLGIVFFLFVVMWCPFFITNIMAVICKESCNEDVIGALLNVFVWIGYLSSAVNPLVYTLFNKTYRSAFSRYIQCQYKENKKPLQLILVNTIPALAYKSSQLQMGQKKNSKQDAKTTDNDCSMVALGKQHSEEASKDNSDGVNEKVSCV

[11] = Effect on spontaneous locomotory activity in NMRI mouse at 100 mg/kg, ip measured for 30 mins; type: organism-based; settings: in vivo, 0.5 h
[12] = target: 5-hydroxytryptamine receptor 1D (Rattus norvegicus) (UniProt P28565); assay: Displacement of [3H]serotonin from recombinant rat 5-HT1D receptor at 10 uM after 60 mins by scintillation counting analysis relative to control
Sequence of 5-hydroxytryptamine receptor 1D (Rattus norvegicus) (P28565 whole entry): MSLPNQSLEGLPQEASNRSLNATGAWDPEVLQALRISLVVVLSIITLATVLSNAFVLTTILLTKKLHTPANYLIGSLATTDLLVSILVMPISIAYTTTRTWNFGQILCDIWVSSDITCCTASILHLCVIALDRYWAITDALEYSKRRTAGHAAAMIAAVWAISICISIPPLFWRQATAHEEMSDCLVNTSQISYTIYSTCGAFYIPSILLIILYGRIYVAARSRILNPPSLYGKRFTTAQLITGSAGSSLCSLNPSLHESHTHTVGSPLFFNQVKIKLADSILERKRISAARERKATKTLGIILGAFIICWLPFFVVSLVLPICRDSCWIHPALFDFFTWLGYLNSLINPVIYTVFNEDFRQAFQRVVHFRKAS

[13] = target: T3, 5-hydroxytryptamine receptor 2C (Homo sapiens) (UniProt P28335); assay: Displacement of [125I]+/-DOI from human recombinant 5-HT2C receptor at 10 uM after 60 mins by scintillation counting analysis relative to control
T3 sequence (whole entry): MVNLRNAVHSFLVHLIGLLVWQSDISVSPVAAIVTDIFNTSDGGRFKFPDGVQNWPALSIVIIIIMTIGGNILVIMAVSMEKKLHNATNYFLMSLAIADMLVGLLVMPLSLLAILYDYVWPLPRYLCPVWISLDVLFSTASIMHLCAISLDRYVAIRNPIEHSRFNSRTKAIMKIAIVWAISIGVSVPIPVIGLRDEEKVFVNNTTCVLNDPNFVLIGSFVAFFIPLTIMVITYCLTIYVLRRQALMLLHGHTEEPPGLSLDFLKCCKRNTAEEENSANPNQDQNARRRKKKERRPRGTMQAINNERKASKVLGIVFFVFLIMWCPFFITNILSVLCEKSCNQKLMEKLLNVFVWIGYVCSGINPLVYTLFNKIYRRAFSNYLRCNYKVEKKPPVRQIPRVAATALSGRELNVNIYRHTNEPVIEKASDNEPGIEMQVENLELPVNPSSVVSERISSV

[14] = target: T4, 5-hydroxytryptamine receptor 2C (Homo sapiens, UniProt P28335); assay: Displacement of [125I]+/-DOI from human recombinant 5-HT2C receptor after 60 mins by scintillation counting analysis
T4 sequence (P28335 whole entry): T3 sequence (whole entry)

[15] = Toxicity in NMRI mouse assessed as behavioral changes upto 100 mg/kg, ip measured 0.5 to 24 hrs; type: organism-based; settings: in vivo, time 0.5-24 hrs
Mus musculus [16] = assay: Anti-amnesic effect in scopolamine-induced memory impairment NMRI mouse model assessed as spatial working memory by measuring increase in spontaneous alteration at 10 mg/kg, ip measured after 30 mins by Y-maze test; type: functional, organism-based
Mus musculus [17] = assay: Anti-amnesic effect in scopolamine-induced memory impairment NMRI mouse model assessed as spatial working memory by measuring increase in spontaneous alteration at 0.1 mg/kg, ip measured after 30 mins by Y-maze test; type: functional, organism-based
[18] = target: T2, 5-hydroxytryptamine receptor 2A; assay: Displacement of [3H]ketanserin human recombinant 5-HT2A receptor after 60 mins by scintillation counting analysis relative to control
[19] = target: 5-hydroxytryptamine receptor 2B (Homo sapiens) (UniProt P41595); assay: Displacement of [125I]+/-DOI from human recombinant 5-HT2B receptor at 0.01 uM after 60 mins by scintillation counting analysis relative to control
[20] = target: T1, 5-hydroxytryptamine receptor 6; assay: Displacement of [3H]-LSD from human 5-HT6 receptor expressed in HEK293 cells in presence of serotonin incubated for 60 mins; type: cell-based
[21] = target: T5, 5-hydroxytryptamine receptor 1A (Homo sapiens) (UniProt P08908); assay: Displacement of [3H]8-OH-DPAT from recombinant human 5-HT1A receptor at 10 uM after 60 mins by scintillation counting analysis relative to control
T5 sequence (whole entry): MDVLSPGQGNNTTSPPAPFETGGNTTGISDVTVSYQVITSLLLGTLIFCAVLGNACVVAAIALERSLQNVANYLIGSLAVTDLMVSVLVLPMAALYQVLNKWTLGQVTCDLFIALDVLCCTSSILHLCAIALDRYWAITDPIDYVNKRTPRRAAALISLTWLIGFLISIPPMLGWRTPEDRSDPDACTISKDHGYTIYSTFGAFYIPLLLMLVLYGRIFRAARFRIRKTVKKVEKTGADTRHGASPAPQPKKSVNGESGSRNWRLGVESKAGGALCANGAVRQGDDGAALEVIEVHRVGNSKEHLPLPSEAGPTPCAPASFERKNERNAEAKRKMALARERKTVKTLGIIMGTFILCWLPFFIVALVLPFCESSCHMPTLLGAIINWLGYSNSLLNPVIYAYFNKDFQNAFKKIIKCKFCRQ

Row | SMILES | inhibition [1] | inhibition [2] | inhibition ([3]; filed as agonist) | inhibition ([4]; filed as antagonist) | Ki ([5]; read-out: Ki) | inhibition ([2]; filed as agonist) | also measured
1 | COc1cc(N)c(Cl)cc1C(=O)CCC1CCN(CCNS(=O)(=O)c2ccc(N)cc2)CC1 | 7% | – | 100% | 46% | 1.97 nM | 76% | –
2 | COc1cc(N)c(Cl)cc1C(=O)CCC1CCN(CCNS(=O)(=O)c2cc(Br)ccc2Br)CC1 | 16% | – | 100% | 52% | 16.3 nM | 51% | –
3 | COc1ccc(S(=O)(=O)NCCN2CCC(CCC(=O)c3cc(Cl)c(N)cc3OC)CC2)cc1 | 36% | – | 100% | 52% | 12.3 nM | 48% | –
4 | COc1cc(N)c(Cl)cc1C(=O)CCC1CCN(CCNS(=O)(=O)c2ccc(OC)c(N3CCN(C)CC3)c2)CC1 | 4% | – | 97% | 43% | 3.46 nM | 75% | –
5 | CCCCN1CCC(CCC(=O)c2cc(Cl)c(N)cc2OC)CC1 | – | – | – | – | – | – | Ki ([20]; hek293): Active; Ki [5]: Active
6 | COc1ccc(S(=O)(=O)NCCN2CCC(CCC(=O)c3cc(Cl)c(N)cc3OC)CC2)cc1Cl | 20% | – | 100% | 85% | 22.5 nM | 41% | Ki ([20]; read-out: Ki): 158 nM
7 | COc1ccc(NS(=O)(=O)c2sc3ccc(Cl)cc3c2C)cc1N1CCNCC1 | – | – | – | – | – | – | Ki ([20]; hek293): Active
8 | COc1ccc(S(=O)(=O)N2CCC(CCC(=O)c3cc(Cl)c(N)cc3OC)CC2)cc1 | inactive | 10% | – | – | – | – | inhibition [3]: 20%; inhibition [4]: inactive
9 | COc1cc(N)c(Cl)cc1C(=O)CCC1CCN(CCNS(=O)(=O)c2ccc(C)cc2)CC1 | inactive | 20% | 100% | – | 18 nM | – | inhibition [4]: 15%
10 | COc1cc(N)c(Cl)cc1C(=O)CCC1CCN(CCNS(=O)(=O)c2ccc3c(c2)NC(=O)CO3)CC1 | inactive | 30% | 100% | – | 6.2 nM | – | inhibition ([4]; filed as agonist): 40%

Continued, in another order:

Row | inhibition [1] | inhibition [2] | inhibition ([3]; filed as agonist) | inhibition ([4]; filed as antagonist) | Ki ([5]; read-out: Ki) | inhibition ([2]; filed as agonist) | SMILES | also measured
11 | 3% | 30% | 100% | 58% | 8.2 nM | – | COc1ccc(S(=O)(=O)NCCN2CCC(CCC(=O)c3cc(Cl)c(N)cc3OC)CC2)cc1OC | –
12 | 39% | – | 100% | 85% | 5.3 nM | 60% | COc1cc(N)c(Cl)cc1C(=O)CCC1CCN(CCNS(=O)(=O)c2ccc(N)c(Br)c2)CC1 | Activity [6]: Non-Toxic; inhibition [7]: 62.3%; inhibition [8]: 100%; Activity (Mus musculus [9]): Active; inhibition [10]: 93.6%; Activity [11]: Non-Toxic; inhibition [12]: 51.1%; inhibition [13]: 92.6%; Ki [14]: 160 nM; Activity [15]: Non-Toxic; Activity (Mus musculus [16]): inactive; Activity (Mus musculus [17]): inactive; Ki [18]: 330 nM; inhibition [19]: 41%; Ki ([20]; read-out: Ki): 219 nM; inhibition [21]: 66.1%
13 | 10% | 11% | 100% | – | 12.2 nM | – | COc1ccc(S(=O)(=O)CCCN2CCC(CCC(=O)c3cc(Cl)c(N)cc3OC)CC2)cc1 | inhibition [4]: 33%
14 | inactive | – | 100% | – | 26 nM | 41% | COc1ccc(S(=O)(=O)NCCCN2CCC(CCC(=O)c3cc(Cl)c(N)cc3OC)CC2)cc1 | inhibition [4]: inactive
15 | 7% | – | 100% | 67% | 7.7 nM | 56% | COc1cc(N)c(Cl)cc1C(=O)CCC1CCN(CCNS(=O)(=O)c2ccc(NC(C)=O)cc2)CC1 | Ki ([20]; read-out: Ki): 834 nM
16 | inactive | 19% | 100% | 45% | 18.7 nM | – | COc1ccc(S(=O)(=O)NCCN2CCC(CCC(=O)c3cc(Cl)c(N)cc3OC)CC2)c(OC)c1 | –
17 | inactive | 12% | 100% | – | 50 nM | – | COc1cc(N)c(Cl)cc1C(=O)CCC1CCN(CCNS(=O)(=O)c2ccc3c(c2)N(C)CCO3)CC1 | inhibition [4]: 7%
18 | inactive | 24% | 99% | 72% | 24.3 nM | – | COc1ccc(S(=O)(=O)NCCN2CCC(CCC(=O)c3cc(Cl)c(N)cc3OC)CC2)cc1Br | Ki ([20]; read-out: Ki): 147 nM
19 | – | – | 100% | 83% | 8.7 nM | 46% | COc1cc(N)c(Cl)cc1C(=O)CCC1CCN(CCNS(=O)(=O)c2cc(Br)c(N)c(Br)c2)CC1 | inhibition ([1]; filed as antagonist): 52%; Ki ([20]; read-out: Ki): 140 nM
